Measurements reported in patent US20250073234A1, “COMBINATION THERAPIES INCLUDING PARP1 INHIBITORS” (Cornell University, priority 2022, published 2025).

What was measured:
[1] = system: WPMY-1 cells; experiment: ATAC-seq chromatin accessibility in WPMY-1 cells; type: cell-based, human; conditions: lactate-treated WPMY-1 cells, 48 h
Description: The cell pellet was resuspended in 50 μl lysis buffer and then spun down 500×g for 10 minutes at 4° C. The nuclei pellet was resuspended into 50 μl transposition reaction mixture containing Tn5 transposase from Nextera DNA Library Prep Kit (Illumina) and incubated at 37° C. for 30 minutes. Then the transposase-associated DNA was purified using MinElute PCR purification kit (QIAGEN). To amplify the library, the DNA was first amplified for 5 cycles using indexing primer from Nextera kit and NEBNext High-Fidelity 2×PCR master mix. To reduce the PCR amplification bias, 5 μl of amplified DNA after the first 5 cycles was used to do qPCR of 20 cycles to decide the number of cycles for the second round of PCR. Usually, the maximum cycle of the second round of PCR is 5 cycles. Then the total amplified DNA was size selected to fragments less than 800 bp using SPRI beads. Quantification of the ATAC-seq library was done with QuBit. The size of the pooled library was examined by TapeStation. Barcoded ATAC-seq libraries were pooled and paired end sequenced (sX75) on the Illumina NextSeq 500 using the High output V2.5 kit (Illumina Inc., San Diego, CA).
Peaks were annotated with ChipSeeker R package. […].

[2] = system: AP-1; experiment: AP-1-driven luciferase reporter in WPMY-1 cells; type: cell-based, human; conditions: lactate 48 h
[3] = system: WPMY-1 cells; experiment: Intracellular NAD levels in WPMY-1 cells; type: cell-based, human; conditions: stromal fibroblasts treated with lactate vs untreated
Description: Quantification was carried out using the NAD/NADH quantification colorimetric kit (Cat. No. MAK037, Sigma) according to the manufacturer's protocol. At least three independent measurements were carried out.

[4] = system: PARP-1; experiment: Poly(ADP-ribosyl)ation in WPMY-1 cells (immunoblot, immunoprecipitation); type: cell-based, human
Description: Cells for protein analysis were lysed in RIPA buffer (20 mM Tris-HCl, […], 2 mM EDTA, 1% Triton-X, 10% glycerol, 0.1% SDS, and 0.5% sodium deoxycholate) with phosphatase and protease inhibitors. For immunoprecipitations, cells were lysed in IP lysis buffer (100 mM NaCl, 25 mM Tris, 1% Triton-X, 10% glycerol, with phosphatase and protease inhibitors) and immunoprecipitated with 25 μl of 50% slurry of protein […] beads (Bioworld). Immunoprecipitates were washed three times with lysis buffer, once with high salt (500 mM NaCl), and once more with lysis buffer. Protein concentration in lysates was determined by using Protein Assay Kit (Bio-Rad). Cell extracts and immunoprecipitated proteins were denatured, subjected to SDS-PAGE, transferred to PVDF membranes (GE Healthcare). After blocking with 5% nonfat dry milk in Tris-buffered saline and 0.1% Tween (TBS-T), the membranes were incubated with the specific antibodies (as listed in Key Resources Table) overnight at 4° C. After 2 hours incubation with the appropriate horseradish peroxidase-conjugated antibodies, the immune complexes were detected by chemiluminescence (Thermo Scientific) or Near-infrared fluorescence (LI-COR).

[5] = system: PC3 cells; experiment: Trans-well migration and invasion of PC3 cells co-cultured with pre-treated WPMY-1 cells; type: cell-based, human; conditions: Olaparib 10 μM + PEGPH20 2.5 μg/ml, basal and ADT
Description: For co-culture migration and invasion assays, 8×10^4 WPMY-1 cells were plated onto the lower chamber of a 24 well plate in DMEN containing 10% FBS (basal conditions) or 10% charcoal stripped FBS (ADT conditions) and vehicle (DMSO) or Olaparib 10 μM or Olaparib 10 μM+PEGPH20 2.5 μg/ml for 48 hours. 5×10^4 PC3 were seeded in a transwell chamber (Corning Biocoat control inserts) or in a transwell invasion chamber (Corning BioCoat Matrigel Invasion Chambers), both with 8 μm membrane. PC3 were allowed to migrate or invade for 20 hours at 37° C., 5% CO2. Cells were fixed in cold methanol and stained with crystal violet.

[6] = system: PC3 cells; experiment: Click-iT EdU proliferation of PC3 cells treated with CM from WPMY-1 cells; type: cell-based, human; conditions: Olaparib 10 μM + PEGPH20 2.5 μg/ml or CM incubation with Galunisertib 10 μM
Description: WPMY-1 cells were cultured in DMEN containing 10% FBS (basal conditions) or 10% charcoal stripped FBS (ADT conditions), then the cells were treated with vehicle (DMSO), Olaparib 10 μM, Olaparib 10 μM+PEGPH20 2.5 μg/ml for 96 hours, refreshing media and stimuli at 48 hours, conditioned media (CM) was generated by collecting supernatant on day 4. PC3 cells were seeded in a black-walled well (Thermo Fisher) and serum starved overnight. CM from WPMY-1 cells was added to PC3 for 24 h. PC3 were exposed to EdU incorporation for the last 2 hours. Proliferating cells were detected using Click-iT EdU Alexa fluor 488 (Thermo Fisher) following the manufacturer's instructions. Pictures were taken using EVOS M5000 Imaging System and EdU positive were measured using Fiji (Schindelin et al., 2012).

[7] = system: PC3 + WPMY-1 tumors; experiment: Subcutaneous xenograft co-implantation of PC3 and WPMY-1 cells in NSG mice; type: in vivo, mouse; conditions: Olaparib 40 mg/Kg + PEGPH20 0.0375 mg/Kg, twice a week, 2 weeks
Description: For mouse xenografts using PC3 PCa cells and sgC or sgAP-1 WPMY-1 stromal cells. 7 weeks old NSG mice were surgical castrated and let androgen levels drop for 10 days. Cells were trypsinized washed two times in PBS and resuspend in DMEN. 1×10^6 PC3 and 1×10^6 sgC or sgAP1-A WPMY-1 for each mouse were resuspended in 100 μl DMEM: Matrigel (1:1) and injected subcutaneously into both flanks of immunocompromised NSG mice (PC3+sgC WPMY-1 n=4; PC3+sgAP-1 WPMY-1 n=4). Tumors were allowed to grow for 1 month. Mice were euthanized and tumors were collected and analyzed histologically. For Olaparib treatment in mouse xenografts. PC3 PCa cells and WPMY-1 stromal cells were trypsinized washed two times in PBS and resuspend in DMEN. 1×10^6 PC3 and 1×10^6 WPMY-1 for each mouse were resuspended in 100 μl DMEM: Matrigel (1:1) and injected subcutaneously into both flanks of immunocompromised NSG mice. Tumors were allowed to grow for 14 days, and mouse were randomly divided to receive vehicle, n=10, Olaparib (40 mg/kg, 2 days each week, i.p.), n=10 or Olaparib (40 mg/kg, 2 days each week, i.p.)+_PEGPH20 (0.0375 mg/Kg, 2 days each week, retroorbital injection) n=10. Tumors were measured twice a week. Mice were euthanized 14 days after the initiation of the treatment and tumors were collected and analyzed histologically. For Olaparib treatment in mice, 13 weeks-old male TRAMP^+, n=18, were randomly distributed to receive vehicle, n=9, or Olaparib (40 mg/kg/, 5 days each week, i.p.), n=9. Mice were euthanized 1 month after the initiation of the treatment. Prostate and other organs were collected and analyzed histologically.
Tissues from indicated mice were isolated, fixed in zinc buffered formalin overnight at 4° C., dehydrated, and embedded in paraffin. Sections (5 μm) were stained with hematoxylin and eosin (H&E). For immunohistochemistry, sections were deparaffinized, rehydrated, and then treated for antigen retrieval. […] Stained sections were analyzed with a Zeiss light microscope supplemented with Zen 3.3 Bule edition software.

[8] = system: hyaluronan (HA) in WPMY-1 cells; experiment: Immunofluorescence for HABP (HA deposition) in WPMY-1 cells; type: cell-based, human; conditions: Olaparib 10 μM + PEGPH20 2.5 μg/ml, 96 h, basal and ADT
Description: WPMY-1 cells were seeded in coverslides and cultured in DMEN containing 10% FBS (basal conditions) or 10% charcoal stripped FBS (ADT conditions), then the cells were treated with vehicle (DMSO), Olaparib 10 μM, Olaparib 10 μM+PEGPH20 2.5 μg/ml for 96 hours, refreshing media and stimuli at 48 hours. Cells were fixed in PFA 4% for 20 minutes at room temperature, permeabilize and blocked following abcam's immunofluorescence protocol. Then, cells were incubated overnight with Hyaluronic acid binding protein (HABP) at 4° C. Cells were incubated with Alexa conjugated streptavidin and mounted in slides with mowiol. Pictures were taken by Zeiss LSM 710 NLO Confocal Microscope.

[9] = system: metastatic pancreas cancer; conditions: cited from earlier work

| Molecule | chromatin accessibility [1] | AP-1-driven luciferase reporter activity [2] | NAD+ levels [3] | poly(ADP-ribosyl)ation of c-JUN and c-FOS ([4]; lactate 48 h, immunoprecipitation) | total poly(ADP-ribosyl)ation levels ([4]; lactate-treated WPMY-1 cells) | Olaparib-enhanced migration of PC3 cells [5] | Olaparib-induced proliferation (EdU) [6] | anti-tumor activity of the combination (tumor volume) [7] | HA deposition in response to Olaparib [8] | primary endpoint of phase 3 trial [9] |
| --- | --- | --- | --- | --- | --- | --- | --- | --- | --- | --- |
| CC(O)C(=O)O (stereo not shown) [lactate] | widespread decrease in chromatin accessibility | repressed an AP-1-driven luciferase reporter | lower than in untreated cells | impaired the poly(ADP-ribosyl) ation of c-JUN and c-FOS | reduced total poly(ADP-ribosyl) ation levels | – | – | – | – | – |
| PEGPH20: PEGylated Recombinant Human Hyaluronidase, clinical-grade recombinant hyaluronidase (provided by Halozyme Therapeutics) (protein, UniProt P38567 36-490, looked up, PEGylated) Hyaluronidase PH-20: LNFRAPPVIPNVPFLWAWNAPSEFCLGKFDEPLDMSLFSFIGSPRINATGQGVTIFYVDRLGYYPYIDSITGVTVNGGIPQKISLQDHLDKAKKDITFYMPVDNLGMAVIDWEEWRPTWARNWKPKDVYKNRSIELVQQQNVQLSLTEATEKAKQEFEKAGKDFLVETIKLGKLLRPNHLWGYYLFPDCYNHHYKKPGYNGSCFNVEIKRNDDLSWLWNESTALYPSIYLNTQQSPVAATLYVRNRVREAIRVSKIPDAKSPLPVFAYTRIVFTDQVLKFLSQDELVYTFGETVALGASGIVIWGTLSIMRSMKSCLLLDNYMETILNPYIINVTLAAKMCSQVLCQEQGVCIRKNWNSSDYLHLNPDNFAIQLEKGGKFTVRGKPTLEDLEQFSEKFYCSCYSTLSCKEKADVKDTDAVDVCIADGVCIDAFLKPPMETEEPQIFYNASPSTLS | – | – | – | – | – | completely blocked the enhanced migration of PC3 cells | blocked Olaparib-induced proliferation in stromal cells | enhanced Olaparib anti-tumor activity | efficiently degraded HA deposition | failed to meet the primary endpoint |
